# Where a name gives a salt, the structure may show the parent alone. Read-outs that look alike come from different tables or passages of the source.
# How the values were obtained:
# [1] = molecular target: T1, muscle-like nicotinic receptors (human clonal line TE671/RD) (Homo sapiens, UniProt P02708+P07510+Q07001); assay: cell-based; settings: for Emax: read-out: HUMAN MUSCLE Emax (maximal activation as percentage of that induced by acetylcholine); for potency relative to succinylcholine, in words: comparison of EC50 values with Sample No. C-2; for efficacy relative to succinylcholine, in words: comparison of Emax values with Sample No. C-2
# T1 construct: these cells express muscle-like nicotinic receptors; endogenous in cells; host or cells: TE671/RD (human embryonal rhabdomyosarcoma line)
# Method: (§1) The selectivity at muscle nicotinic receptors of the various analogs described in this invention was determined by their functional efficacies and potencies at muscle and ganglionic sites.
# (§2) Intact cells on dishes were used for functional studies.
# (§3) The medium was removed and ^86 Rb^+ was quantitated using Cerenkov detection. […] Specific ion efflux was determined as the difference in isotope efflux between total and non-specific efflux samples. Dose-response curves were plotted and the concentration resulting in half maximal activation of specific ion flux through nicotinic receptors determined for human muscle and rat ganglionic preparations (EC50).
# [2] = system: ganglionic-type neuronal nicotinic receptors (rat pheochromocytoma clonal line PC12); type: cell-based
# Method: as §1
# Ganglionic effects were established on the rat pheochromocytoma clonal line PC12 which is a continuous clonal cell line of neural crest origin derived from a tumor of the rat adrenal medulla expressing ganglionic-type neuronal nicotinic receptors. […] Discussion concerning the heterogeneity of nicotinic receptors subtypes is set forth in Lukas et al., Internatl. […] See, Fornasari et al., Neurosci.
# as §2, §3
# [3] = human muscle, TE671/RD, 86Rb+ efflux, 4 minutes at 20° C., read-out: HUMAN MUSCLE EC50 (concentration resulting in half maximal activation of specific ion flux)
# [4] = rat ganglia, PC12, 86Rb+ efflux, 4 minutes at 20° C.; read-out: RAT GANGLIA EC50 (concentration resulting in half maximal activation of specific ion flux)
# T1 sequence (P07510 23-517): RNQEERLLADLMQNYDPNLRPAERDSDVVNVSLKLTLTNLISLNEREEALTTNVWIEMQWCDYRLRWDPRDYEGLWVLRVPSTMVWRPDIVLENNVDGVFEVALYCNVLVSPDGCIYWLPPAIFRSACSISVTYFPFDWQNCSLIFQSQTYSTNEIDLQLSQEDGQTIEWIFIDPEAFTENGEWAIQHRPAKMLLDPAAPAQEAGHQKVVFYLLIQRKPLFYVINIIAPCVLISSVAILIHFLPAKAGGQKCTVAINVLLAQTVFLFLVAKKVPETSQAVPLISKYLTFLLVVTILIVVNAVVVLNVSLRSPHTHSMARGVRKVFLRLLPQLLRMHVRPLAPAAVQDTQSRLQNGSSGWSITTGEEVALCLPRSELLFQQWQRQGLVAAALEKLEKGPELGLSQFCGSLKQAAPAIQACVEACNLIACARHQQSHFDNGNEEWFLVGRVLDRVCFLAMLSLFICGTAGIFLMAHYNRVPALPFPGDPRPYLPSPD
# T1 sequence (P02708 21-457): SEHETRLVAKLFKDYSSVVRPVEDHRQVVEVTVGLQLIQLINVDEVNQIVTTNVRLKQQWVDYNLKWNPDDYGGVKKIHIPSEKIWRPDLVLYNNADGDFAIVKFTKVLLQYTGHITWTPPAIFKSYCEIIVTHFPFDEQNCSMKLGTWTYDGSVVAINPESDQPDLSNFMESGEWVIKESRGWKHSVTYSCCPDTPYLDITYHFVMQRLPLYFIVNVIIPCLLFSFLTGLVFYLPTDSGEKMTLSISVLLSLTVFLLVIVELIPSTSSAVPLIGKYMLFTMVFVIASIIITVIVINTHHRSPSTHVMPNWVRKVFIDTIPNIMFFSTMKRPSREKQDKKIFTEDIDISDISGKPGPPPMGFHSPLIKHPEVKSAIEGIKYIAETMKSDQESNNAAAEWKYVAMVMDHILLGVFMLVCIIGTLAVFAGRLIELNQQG
# T1 sequence (Q07001 22-517): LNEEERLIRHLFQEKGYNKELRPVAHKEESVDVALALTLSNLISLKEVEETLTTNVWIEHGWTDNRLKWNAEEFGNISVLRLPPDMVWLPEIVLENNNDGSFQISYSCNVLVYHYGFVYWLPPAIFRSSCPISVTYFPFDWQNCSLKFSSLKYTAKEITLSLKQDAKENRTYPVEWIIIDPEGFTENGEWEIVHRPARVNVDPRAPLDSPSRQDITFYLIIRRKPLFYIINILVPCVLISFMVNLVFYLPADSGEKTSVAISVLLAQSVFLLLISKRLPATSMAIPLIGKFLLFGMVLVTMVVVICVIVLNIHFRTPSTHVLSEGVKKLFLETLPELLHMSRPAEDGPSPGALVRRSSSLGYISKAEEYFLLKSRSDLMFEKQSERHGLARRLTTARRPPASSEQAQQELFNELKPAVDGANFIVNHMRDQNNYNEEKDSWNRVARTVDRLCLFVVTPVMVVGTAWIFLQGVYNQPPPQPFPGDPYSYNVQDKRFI
Compound,Emax ([1]; TE671/RD) [%],"EC50 [1, 3] [µM]","potency relative to succinylcholine, in words ([1]; human muscle)","efficacy relative to succinylcholine, in words ([1]; human muscle)",RAT GANGLIA Emax (maximal activation as percentage of that induced by acetylcholine) [2] [%],"ganglionic effects, in words ([2]; ganglionic-type receptors)","EC50 [2, 4] [µM]",EC50 [1] [µM],"RAT GANGLIA Emax (maximal activation as percentage of that induced by acetylcholine) ([2]; rat ganglia, PC12, % of acetylcholine maximum) [%]","EC50 ([2]; read-out: RAT GANGLIA EC50 (concentration resulting in half maximal activation of specific ion flux); rat ganglia, PC12, 86Rb+ efflux, 4 minutes at 20° C.) [µM]"
"O=C(O)/C=C/C(=O)O.O=C(O)/C=C/C(=O)O.c1cncc(C2CC3CCN2CC3)c1 (racemic) [Sample No. 1, (+/-)-2-(3-pyridyl)-quinuclidine difumarate]",130,0.055,more potent,more efficacious than succinylcholine,100,only at relatively high concentrations,2,–,–,–
"CC(=O)OCC1CC2CCN1CC2.[O-][Cl+3]([O-])([O-])O (racemic) [Sample No. 4, (+/-)-2-acetoxymethylquinuclidine perchlorate]",200,3,more potent,more efficacious than succinylcholine,60,only at relatively high concentrations,50,–,–,–
"Fc1cncc(C2CCCN2)c1 (racemic) [Sample No. 5, (+/-)-5-fluoronornicotine]",160,30,at least as potent as succinylcholine,more efficacious than succinylcholine,< 10,–,–,–,–,–
"CN1CCCC1c1cncc(Cl)c1.[O-][Cl+3]([O-])([O-])O (racemic) [Sample No. 6, (+/-)-5-chloronicotine perchlorate]",110,30,at least as potent as succinylcholine,more efficacious than succinylcholine,0,–,–,–,–,–
"CC(=O)OCC[N+](C)(C)C [C-1, acetylcholine, reference compound]",–,–,–,–,100,–,–,–,–,–
"Fc1cncc(C2=NCCCC2)c1 [Sample No. 2, 5-fluoroanabaseine dipicrate]",220,1,very potent relative to succinylcholine,very efficacious relative to succinylcholine,0,no observed ganglionic effects,–,–,–,–
"c1cncc(C2=NCCCC2)c1 [Sample No. 3, anabaseine dihydrochloride]",200,–,more potent,more efficacious than succinylcholine,–,only at relatively high concentrations,–,2,80,50
"C[N+](C)(C)CCOC(=O)CCC(=O)OCC[N+](C)(C)C [Sample No. C-2, succinylcholine chloride, reference compound]",95,30,–,–,0,–,–,–,–,–
